Experimental data reported in ChEMBL document CHEMBL1201862, “PubChem BioAssay data set” (2004).
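In this assay, cells in 96-well plates receive the compound at five concentrations for 48 hours. Endpoints are linearly interpolated between the surrounding concentrations. Abbreviation: GI50, concentration required for 50% inhibition of growth.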 Active and inactive are the calls of the source. Cut-off read from the data, not from the text of the source: active = GI50 up to about 1.1 µM and inactive = higher.

Tests used:
Assay in all cases: NCI tumour cell line growth inhibition, 48 h
[1] = test system: A549
[2] = test system: NCI-H23
[3] = test system: OVCAR-8
[4] = test system: UO-31
[5] = test system: HCC 2998
[6] = test system: IGROV-1
[7] = test system: KM12
[8] = test system: NCI/ADR-RES
[9] = test system: HOP-92
[10] = test system: LOX IMVI
[11] = test system: OVCAR-5
[12] = test system: Hs-578T
[13] = test system: SF-539
[14] = test system: U-251
[15] = test system: DU-145
[16] = test system: HCT-116
[17] = test system: SK-MEL-28
[18] = test system: BT-549
[19] = test system: UACC-257
[20] = test system: A498

| Compound | GI50 [1] | GI50 [2] | GI50 [3] | GI50 [4] | GI50 [5] | GI50 [6] | GI50 [7] | GI50 [8] | GI50 [9] | GI50 [10] | GI50 [11] | GI50 [12] | GI50 [13] | GI50 [14] | GI50 [15] | GI50 [16] | GI50 [17] | GI50 [18] | GI50 [19] | GI50 [20] |
| --- | --- | --- | --- | --- | --- | --- | --- | --- | --- | --- | --- | --- | --- | --- | --- | --- | --- | --- | --- | --- |
| CC(=O)OC1=CC(n2cc(F)c(=O)[nH]c2=O)OC(C)C1=O (centres undefined) | 7.29 µM (inactive) | 19.1 µM (inactive) | 40.7 µM (inactive) | 13.5 µM (inactive) | 5.26 µM (inactive) | 30.5 µM (inactive) | 22.8 µM (inactive) | 40.2 µM (inactive) | > 33.2 µM (inactive) | 14.6 µM (inactive) | 49.8 µM (inactive) | > 88.3 µM (inactive) | 3.01 µM (inactive) | > 85.7 µM (inactive) | 21.6 µM (inactive) | 10.8 µM (inactive) | 17.7 µM (inactive) | 22.2 µM (inactive) | 57.1 µM (inactive) | 10.4 µM (inactive) |
| CN1CCc2cc3c(c4c2C1C(O)c1ccccc1-4)OCO3 (centres undefined) | 3.89 µM (inactive) | 12 µM (inactive) | 7.53 µM (inactive) | 6.1 µM (inactive) | 8.91 µM (inactive) | 6.61 µM (inactive) | 7.52 µM (inactive) | 6.47 µM (inactive) | 2.16 µM (inactive) | 4.25 µM (inactive) | 8.24 µM (inactive) | 3.19 µM (inactive) | 4.72 µM (inactive) | 6.07 µM (inactive) | 9.73 µM (inactive) | 3.68 µM (inactive) | 20.2 µM (inactive) | 3.86 µM (inactive) | 7.19 µM (inactive) | 3.27 µM (inactive) |
| CC1=NN(C(=O)CC(=O)Nc2ccccc2C)C(=O)C1/N=N\c1ccc(S(=O)(=O)c2ccc(/N=N/C3C(=O)N(C(=O)CC(=O)Nc4ccccc4C)N=C3C)cc2)cc1 (centres undefined) | > 100 µM (inactive) | > 100 µM (inactive) | 74.6 µM (inactive) | > 100 µM (inactive) | > 100 µM (inactive) | 68.9 µM (inactive) | > 100 µM (inactive) | > 100 µM (inactive) | > 100 µM (inactive) | > 100 µM (inactive) | > 100 µM (inactive) | 85.9 µM (inactive) | > 100 µM (inactive) | 67.9 µM (inactive) | > 100 µM (inactive) | > 100 µM (inactive) | > 100 µM (inactive) | > 100 µM (inactive) | > 100 µM (inactive) | > 100 µM (inactive) |
| CCOC(=O)c1c(C)[n+]([O-])c2cc(Cl)c(Cl)cc2[n+]1[O-] | 14.6 µM (inactive) | 10.7 µM (inactive) | 19.7 µM (inactive) | 24.5 µM (inactive) | 13.7 µM (inactive) | 7.6 µM (inactive) | 7.89 µM (inactive) | 23.8 µM (inactive) | 3.54 µM (inactive) | 15.3 µM (inactive) | 43.6 µM (inactive) | 24.1 µM (inactive) | 26.1 µM (inactive) | 32.1 µM (inactive) | 16.6 µM (inactive) | 18.9 µM (inactive) | 29.4 µM (inactive) | 19.8 µM (inactive) | 16.9 µM (inactive) | 20.3 µM (inactive) |
| COc1cc(C(=O)NC2CCc3cc(OC)c(OC)c(OC)c3-c3ccc(OC)c(=O)cc32)cc(OC)c1OC (centres undefined) | 0.431 µM (active) | 0.0809 µM (active) | 0.201 µM (active) | 10.9 µM (inactive) | 0.0776 µM (active) | 0.0891 µM (active) | 0.036 µM (active) | 18.2 µM (inactive) | 0.0592 µM (active) | 0.0424 µM (active) | 2.75 µM (inactive) | 0.025 µM (active) | 0.0228 µM (active) | 0.0555 µM (active) | 0.24 µM (active) | 0.043 µM (active) | 0.192 µM (active) | 0.083 µM (active) | 0.0938 µM (active) | 0.274 µM (active) |
| C=C1C(=O)O[C@H]2C[C@@]3(C)[C@H](O)CCC(=C)[C@@H]3[C@@H](OC(C)=O)[C@H]12 | 14.7 µM (inactive) | 10.7 µM (inactive) | 18.7 µM (inactive) | 13.5 µM (inactive) | 15.1 µM (inactive) | 14.1 µM (inactive) | 16.4 µM (inactive) | 21.8 µM (inactive) | 2.71 µM (inactive) | 5.43 µM (inactive) | 3.27 µM (inactive) | 14.3 µM (inactive) | 0.409 µM (active) | 20.2 µM (inactive) | 10.9 µM (inactive) | 3.66 µM (inactive) | 20 µM (inactive) | 7.33 µM (inactive) | 15.4 µM (inactive) | 17.8 µM (inactive) |
| O=C(O)CCC(O)=C1S(=O)(=O)OCCOS1(=O)=O | > 100 µM (inactive) | > 100 µM (inactive) | > 100 µM (inactive) | > 100 µM (inactive) | > 100 µM (inactive) | > 100 µM (inactive) | > 100 µM (inactive) | > 100 µM (inactive) | > 100 µM (inactive) | > 100 µM (inactive) | > 100 µM (inactive) | > 100 µM (inactive) | > 100 µM (inactive) | > 100 µM (inactive) | > 100 µM (inactive) | > 100 µM (inactive) | > 100 µM (inactive) | > 100 µM (inactive) | > 100 µM (inactive) | > 100 µM (inactive) |
| CCOC(=O)c1cc2cc(Cc3ccc4[nH]c(C(=O)OCC)cc4c3)ccc2[nH]1 | – | 14.7 µM (inactive) | 5.94 µM (inactive) | 59 µM (inactive) | 91.6 µM (inactive) | 15.4 µM (inactive) | 23.7 µM (inactive) | 13.4 µM (inactive) | 12.3 µM (inactive) | 38.7 µM (inactive) | > 100 µM (inactive) | 12.6 µM (inactive) | 13.7 µM (inactive) | 11.2 µM (inactive) | 31.3 µM (inactive) | 38.5 µM (inactive) | 29.4 µM (inactive) | 12.6 µM (inactive) | 43.6 µM (inactive) | 17.3 µM (inactive) |
| Oc1c2cccc1Cc1cccc3c1OCCOCCOCCOCCOc1c(cccc1Cc1cccc(c1O)C3)C2 | > 100 µM (inactive) | > 100 µM (inactive) | 85.7 µM (inactive) | > 100 µM (inactive) | > 100 µM (inactive) | > 100 µM (inactive) | > 100 µM (inactive) | 39.3 µM (inactive) | > 100 µM (inactive) | > 100 µM (inactive) | > 100 µM (inactive) | 18.4 µM (inactive) | 94.6 µM (inactive) | > 100 µM (inactive) | > 100 µM (inactive) | 7.43 µM (inactive) | > 100 µM (inactive) | > 100 µM (inactive) | 66.2 µM (inactive) | > 100 µM (inactive) |
| OC1[C@@H]2[C@@H](O)[C@H](O)[C@@H](O)N2C[C@@H]1O (some centres undefined) | > 100 µM (inactive) | > 100 µM (inactive) | > 100 µM (inactive) | > 100 µM (inactive) | > 100 µM (inactive) | > 100 µM (inactive) | > 100 µM (inactive) | > 100 µM (inactive) | > 100 µM (inactive) | > 100 µM (inactive) | > 100 µM (inactive) | > 100 µM (inactive) | > 100 µM (inactive) | > 100 µM (inactive) | > 100 µM (inactive) | > 100 µM (inactive) | > 100 µM (inactive) | > 100 µM (inactive) | > 100 µM (inactive) | > 100 µM (inactive) |
